| melting point [°C] | Compound |
| --- | --- |
| 152 to 155 | COc1cc2c(cc1OC)C(c1ccc(N)cc1)=NN(c1ncn[nH]1)C(C)C2 (racemic) [Example 162] |
| 164 to 167 | COc1cc2c(cc1OC)C(c1ccc(N)cc1)=NN(c1nc(C)n[nH]1)C(C)C2 (racemic) [Example 163] |
| 160 to 162 | COc1cc2c(cc1OC)C(c1ccc(N)cc1)=NN(c1ncnn1C)C(C)C2 (racemic) [Example 164] |
| 203 to 205 | COc1cc2c(cc1OC)C(c1ccc(N)cc1)=NN(c1ncn(C)n1)C(C)C2 (racemic) [Example 165] |
| 243 to 246 | COc1cc2c(cc1OC)C(c1ccc(N)cc1)=NN(c1nc(C)n(C)n1)C(C)C2 (racemic) [Example 166] |
| 113 to 115 | COc1cc2c(cc1OC)C(c1ccc(N)cc1)=NN(c1nc(C)nn1C)C(C)C2 (racemic) [Example 167] |
| 124 to 127 | COc1cc2c(cc1OC)C(c1ccc(N)cc1)=NN(C(=O)N1CCOCC1)C(C)C2 (racemic) [Example 177] |
| 129 to 132 | COc1cc2c(cc1OC)C(c1ccc(N)cc1)=NN(C(=O)N1CCCCC1)C(C)C2 (racemic) [Example 178] |
| 173 to 174 | CONC(=O)N1N=C(c2ccc(N)cc2)c2cc(OC)c(OC)cc2CC1C (racemic) [Example 179] |
| 194 to 195 | CNC(=O)N1N=C(c2ccc([N+](=O)[O-])c(Cl)c2)c2cc(OC)c(OC)cc2CC1C (centres unmarked) [75] |
| 195 to 197 | CNC(=O)N1N=C(c2ccc([N+](=O)[O-])c(Cl)c2)c2cc(OC)c(OC)cc2CC1C (centres unmarked) [76] |
| 206 to 208 | CCNC(=O)N1N=C(c2ccc([N+](=O)[O-])cc2)c2cc(OC)c(OC)cc2CC1C (centres unmarked) [78] |
| 186 to 189 | CCNC(=O)N1N=C(c2ccc([N+](=O)[O-])cc2)c2cc(OC)c(OC)cc2CC1C (centres unmarked) [79] |
| 195 to 197 | COc1cc2c(cc1OC)C(c1ccc([N+](=O)[O-])cc1)=NN(c1nccs1)C(C)C2 (centres unmarked) [Example 1] |
| 151 to 152 | COc1cc2c(cc1OC)C(c1ccc([N+](=O)[O-])cc1)=NN(c1nccs1)C(C)C2 (centres unmarked) [Example 2] |
| 145 to 147 | COc1cc2c(cc1OC)C(c1ccc([N+](=O)[O-])c(C)c1)=NN(c1nccs1)C(C)C2 (centres unmarked) [Example 3] |
| 172 to 174 | COc1cc2c(cc1OC)C(c1ccc([N+](=O)[O-])c(C)c1)=NN(c1nccs1)C(C)C2 (centres unmarked) [Example 4] |
| 168 to 169 | COc1cc2c(cc1OC)C(c1ccc([N+](=O)[O-])c(Cl)c1)=NN(c1nccs1)C(C)C2 (centres unmarked) [Example 5] |
| 194 to 195 | COc1cc2c(cc1OC)C(c1ccc([N+](=O)[O-])cc1)=NN(c1nc(C)cs1)C(C)C2 (centres unmarked) [Example 6] |
| 122 to 123 | COc1cc2c(cc1OC)C(c1ccc([N+](=O)[O-])cc1)=NN(c1ncc(C)s1)C(C)C2 (centres unmarked) [Example 7] |
| 192 to 193 | COc1cc2c(cc1OC)C(c1ccc([N+](=O)[O-])cc1)=NN(c1nc(C)c(C)s1)C(C)C2 (centres unmarked) [Example 8] |
| 190 to 192 | COc1cc2c(cc1OC)C(c1ccc([N+](=O)[O-])cc1)=NN(c1nc(C)c(C)s1)C(C)C2 (centres unmarked) [Example 9] |
| 125 to 126 | COc1cc2c(cc1OC)C(c1cccc(Cl)c1)=NN(c1nccs1)C(C)C2 (centres unmarked) [Example 10] |
| 195 to 196 | COc1cc2c(cc1OC)C(c1ccc([N+](=O)[O-])c(C)c1)=NN(c1nncs1)C(C)C2 (centres unmarked) [Example 19] |

| melting point [°C] | Compound |
| --- | --- |
| 192 to 195 | COc1cc2c(cc1OC)C(c1ccc([N+](=O)[O-])c(C)c1)=NN(c1nncs1)C(C)C2 (centres unmarked) [Example 20] |
| 214 to 215 | COc1cc2c(cc1OC)C(c1ccc([N+](=O)[O-])c(Cl)c1)=NN(c1nncs1)C(C)C2 (centres unmarked) [Example 21] |
| 203 to 206 | COc1cc2c(cc1OC)C(c1ccc([N+](=O)[O-])c(Cl)c1)=NN(c1nncs1)C(C)C2 (centres unmarked) [Example 22] |
| 86 to 88 | COc1cc2c(cc1OC)C(c1cccc(Cl)c1)=NN(c1nncs1)C(C)C2 (centres unmarked) [Example 23] |
| 203 to 204 | COc1cc2c(cc1OC)C(c1ccc(Cl)cc1)=NN(c1nncs1)C(C)C2 (centres unmarked) [Example 24] |
| 173 to 174 | COc1ccc(C2=NN(c3nncs3)C(C)Cc3cc(OC)c(OC)cc32)cc1OC (centres unmarked) [Example 25] |
| 172 to 174 | CCOc1cc2c(cc1OCC)C(c1ccc([N+](=O)[O-])cc1)=NN(c1nncs1)C(C)C2 (centres unmarked) [Example 26] |
| 228 to 229 | COc1cc2c(cc1OC)C(c1ccc([N+](=O)[O-])cc1)=NN(c1nnc(C)s1)C(C)C2 (centres unmarked) [Example 27] |
| 225 to 229 | COc1cc2c(cc1OC)C(c1ccc([N+](=O)[O-])cc1)=NN(c1nnco1)C(C)C2 (centres unmarked) [Example 29] |
| 177 to 178 | COc1cc2c(cc1OC)C(c1ccc([N+](=O)[O-])cc1)=NN(c1nnc(C)o1)C(C)C2 (centres unmarked) [Example 30] |
| 180 to 182 | COc1cc2c(cc1OC)C(c1ccc([N+](=O)[O-])c(C)c1)=NN(C1=NOCS1)C(C)C2 (centres unmarked) [Example 35] |
| 186 to 191 | COc1cc2c(cc1OC)C(c1ccc(F)cc1)=NN(C1=NOCS1)C(C)C2 (centres unmarked) [Example 36] |
| 170 to 173 | COc1cc2c(cc1OC)C(c1ccccc1)=NN(C1=NOCS1)C(C)C2 (centres unmarked) [Example 37] |
| 213 to 214 | COc1cc2c(cc1OC)C(c1ccc([N+](=O)[O-])cc1)=NN(c1ncon1)C(C)C2 (centres unmarked) [Example 40] |
| 190 to 192 | COc1cc2c(cc1OC)C(c1ccc([N+](=O)[O-])cc1)=NN(c1ncon1)C(C)C2 (centres unmarked) [Example 41] |
| 227 to 230 | COc1cc2c(cc1OC)C(c1ccc([N+](=O)[O-])c(Cl)c1)=NN(c1ncon1)C(C)C2 (centres unmarked) [Example 45] |
| 206 to 208 | COc1cc2c(cc1OC)C(c1ccc([N+](=O)[O-])c(Cl)c1)=NN(c1ncon1)C(C)C2 (centres unmarked) [Example 46] |
| 206 to 208 | COc1cc2c(cc1OC)C(c1ccc([N+](=O)[O-])c(C)c1)=NN(c1noc(C)n1)C(C)C2 (centres unmarked) [Example 47] |
| 197 to 199 | COc1cc2c(cc1OC)C(c1ccc([N+](=O)[O-])cc1)=NN(c1noc(C)n1)C(C)C2 (centres unmarked) [Example 48] |
| 210 to 212 | COc1cc2c(cc1OC)C(c1ccc(Cl)cc1)=NN(c1ncon1)C(C)C2 (centres unmarked) [Example 49] |
| 217 to 220 | COc1cc2c(cc1OC)C(c1ccc(F)cc1)=NN(c1ncon1)C(C)C2 (centres unmarked) [Example 50] |
| 215 to 216 | COc1cc2c(cc1OC)C(c1ccccc1)=NN(c1ncon1)C(C)C2 (centres unmarked) [Example 51] |
| 158 to 162 | CCOc1cc2c(cc1OCC)C(c1ccc([N+](=O)[O-])cc1)=NN(c1ncon1)C(C)C2 (centres unmarked) [Example 52] |
| 188 to 189 | COc1ccc(C2=NN(c3ncon3)C(C)Cc3cc(OC)c(OC)cc32)cc1OC (centres unmarked) [Example 53] |

| melting point [°C] | Compound |
| --- | --- |
| 158 to 160 | CNC(=O)N1N=C(c2cc(C)c([N+](=O)[O-])c(C)c2)c2cc(OC)c(OC)cc2CC1C (centres unmarked) [Example 77] |
| 149 to 150 | CCNC(=O)N1N=C(c2ccc([N+](=O)[O-])c(C)c2)c2cc(OC)c(OC)cc2CC1C (centres unmarked) [Example 80] |
| 188 to 189 | CCOc1cc2c(cc1OCC)C(c1ccc([N+](=O)[O-])cc1)=NN(C(=O)NC)C(C)C2 (centres unmarked) [Example 93] |
| 239 to 242 | COc1cc2c(cc1OC)C(c1ccc(N)cc1)=NN(c1ncon1)[C@H](C)C2 [Example 103] |
| 136 to 138 | COc1cc2c(cc1OC)C(c1ccc(N)c(C)c1)=NN(c1ncon1)[C@@H](C)C2 [Example 105] |
| 105 to 108 | COc1cc2c(cc1OC)C(c1ccc(N)c(C)c1)=NN(c1noc(C)n1)[C@H](C)C2 [Example 106] |
| 108 to 110 | COc1cc2c(cc1OC)C(c1ccc(N)c(Cl)c1)=NN(c1ncon1)[C@H](C)C2 [Example 107] |
| 159 to 160 | COc1cc2c(cc1OC)C(c1ccc(N)cc1)=NN(c1nncs1)[C@H](C)C2 [Example 108] |
| 160 to 162 | COc1cc2c(cc1OC)C(c1ccc(N)cc1)=NN(c1nncs1)[C@@H](C)C2 [Example 109] |
| 129 to 134 | COc1cc2c(cc1OC)C(c1ccc(N)c(Cl)c1)=NN(c1nncs1)[C@H](C)C2 [Example 111] |
| 122 to 124 | COc1cc2c(cc1OC)C(c1ccc(N)cc1)=NN(c1nc(C)c(C)s1)[C@H](C)C2 [Example 113] |
| 116 to 118 | COc1cc2c(cc1OC)C(c1ccc(N)c(C)c1)=NN(c1nccs1)[C@H](C)C2 [Example 114] |
| 116 to 117 | COc1cc2c(cc1OC)C(c1ccc(N)c(Cl)c1)=NN(c1nccs1)[C@H](C)C2 [Example 115] |
| 232 to 234 | COc1cc2c(cc1OC)C(c1ccc(N)c(Cl)c1)=NN(C1=NCCS1)[C@H](C)C2 [Example 116] |
| 194 to 197 | COc1cc2c(cc1OC)C(c1ccc(N)c(C)c1)=NN(C1=NOCS1)[C@H](C)C2 [Example 118] |
| 134 to 135 | COc1cc2c(cc1OC)C(c1ccc(N)cc1)=NN(C1=NOCS1)[C@@H](C)C2 [Example 119] |
| 143 to 145 | CONC(=O)N1N=C(c2ccc(N)cc2)c2cc(OC)c(OC)cc2C[C@H]1C [Example 135] |
| 130 to 134 | COc1cc2c(cc1OC)C(c1ccc(NC(C)=O)cc1)=NN(c1nccs1)C(C)C2 (centres unmarked) [Example 181] |
| 209 to 211 | COc1cc2c(cc1OC)C(c1ccc(NC(C)=O)c(C)c1)=NN(c1nccs1)C(C)C2 (centres unmarked) [Example 182] |
| 238 to 239 | COc1cc2c(cc1OC)C(c1ccc(NC(C)=O)cc1)=NN(c1nc(C)c(C)s1)[C@H](C)C2 [Example 184] |
| 229 to 231 | COc1cc2c(cc1OC)C(c1ccc(NC(C)=O)c(C)c1)=NN(c1nccs1)[C@H](C)C2 [Example 185] |
| 213 to 215 | COc1cc2c(cc1OC)C(c1ccc(NC(C)=O)c(Cl)c1)=NN(c1nccs1)[C@H](C)C2 [Example 186] |
| 150 to 151 | COc1cc2c(cc1OC)C(c1ccc(NC(C)=O)cc1)=NN(c1nncs1)C(C)C2 (centres unmarked) [Example 187] |
